Calls of active or inactive are those of the source. The calls are words filed in the database; no cut-off is given here.

A short description of data set [1]: Cytotoxicity against human DK1 cells assessed as growth inhibition at 50 uM after 20 mins by green fluorescence assay relative to control. In kind it is functional. Particulars: DK1, 20 min, read-out: GI.
Data set [2] in a line: Cytotoxicity against human DK1 cells assessed as growth inhibition at 25 uM after 20 mins by green fluorescence assay relative to control. In kind it is functional. The conditions noted are these: DK1, 20 min, read-out: GI.
Data set [3] in a line: Cytotoxicity against human PNT2 cells assessed as cell viability after 72 hrs by cell titre glo assay. The format is cell-based. Particulars: pnt2, 72 h.
Data set [4] deals with HCT-116. As to the kind of experiment: Cytotoxicity against human HCT116 cells assessed as cell viability after 72 hrs by cell titre glo assay. In kind it is functional, cell-based.
Data set [5] has as its system HCT-116. As to the kind of experiment: Cytotoxicity against human HCT116 cells assessed as cell viability at 0.1 to 100 uM after 48 hrs by cell titre glo assay. The format is functional, cell-based.
A short description of data set [6]: Cytotoxicity against human PNT2 cells assessed as growth inhibition at 0.1 to 10 uM after 72 hrs by cell titre glo assay. In kind it is cell-based. The conditions noted are these: pnt2, 72 h.
Data set [7] has as its system HCT-116. As to the kind of experiment: Cytotoxicity against human HCT116 cells assessed as cell survival at 25 uM after 72 hrs by cell titre glo assay relative to control. Particulars: HCT-116, 72 h, read-out: Survival. The format is functional.
A short description of data set [8]: Cytotoxicity against human PNT2 cells assessed as cell viability at 50 uM after 72 hrs by cell titre glo assay. In kind it is cell-based. The conditions noted are these: pnt2, 72 h.
In data set [9] the test system is HCT-116. As to the kind of experiment: Cytotoxicity against human HCT116 cells assessed as cell viability at 50 uM after 72 hrs by cell titre glo assay relative to control. In kind it is functional. Particulars: HCT-116, 72 h, read-out: Activity.

In the case of `NC(CSC1(c2ccc(Cl)cc2)c2ccccc2-c2ccccc21)C(=O)O` (configuration not stated), the inhibition of growth at 50 µM in [1] was 50%. Moreover, the inhibition of growth at 25 µM in [2] came out at 35%. Moreover, the Activity entry (in data set [3]; in the data set with HCT-116 [4]) was “Dose-dependent effect” throughout. Further, the outcome in the data set with HCT-116 [5] was Active.
Turning to `OC(c1c(Cl)cc(Cl)c2nc(C34CC5CC(CC(C5)C3)C4)ccc12)C1CCCCN1` (configuration not stated), the “growth inhibition (GI)” value in data set [6] is recorded as “Toxic”. Moreover, the result in the data set with HCT-116 [5] was Active.
On to `CC(C)c1ccc(C(C2=C(O)C3C=CC=CC3OC2=O)c2c(O)c3ccccc3oc2=O)cc1` (configuration not stated), for which the result with HCT-116 [5] was Active.
Consider `COc1ccc2nc3cc(Cl)ccc3c(Nc3ccc(O)c(CN4CCN(C)CC4)c3)c2c1`, for which the inhibition of growth at 25 µM in data set [2] is 50%. For the same compound, the Activity entry (in data set [3]; in the data set with HCT-116 [4]) was “Dose-dependent effect” each time. In addition, the viability at 25 µM with HCT-116 [7] was 18%. Moreover, the result in the data set on HCT-116 [5] was Active.
For `CC[C@@]1(O)C(=O)OCc2c1cc1n(c2=O)Cc2cc3c(CN(C)C)c(O)ccc3nc2-1` [TOPOTECAN], the “growth inhibition (GI)” value in [6] is given as “Toxic”. The outcome with HCT-116 [5] was Active.
As for `NS(=O)(=O)c1cc2c(cc1Cl)NC(Cc1ccccc1)NS2(=O)=O` (configuration not stated), the outcome with HCT-116 [5] was inactive.
With `Cc1cc(C)c2nc3c(c(C(O)C4CCCCN4)c2c1)CC/C3=C\c1ccc(Cl)cc1` (configuration not stated), in data set [8], the Activity entry is “Non-toxic”. Moreover, in the data set on HCT-116 [9], the viability at 50 µM came to 50%. Further, in the data set with HCT-116 [5], the outcome was Active.
Take `OC(c1cc(-c2ccccc2)nc2c1ccc1ccccc12)C1CCCCN1` (configuration not stated): the inhibition of growth at 25 µM in data set [2] amounted to 50%. For the same compound, the Activity entry (in data set [3]; in the data set on HCT-116 [4]) was “Dose-dependent effect” each time. The viability at 25 µM with HCT-116 [7] is 0%. Also, the outcome in the data set with HCT-116 [5] was Active.
As for `O=C1c2ccccc2NC(c2cc(Cl)cc(Cl)c2O)N1CCc1ccccn1` (configuration not stated), in [8], the Activity result is given as “Non-toxic”. For the same compound, the viability at 50 µM in the data set on HCT-116 [9] was 50%. For the same compound, the result with HCT-116 [5] was Active.
